# Key:
# [1] = test system: Meloidogyne incognita eggs; experiment: M. incognita egg hatching; assay type: in vivo
# Description: Meloidogyne incognita (plant parasitic nematode) eggs were collected from tomato plant roots and were suspended in water. The solution was either diluted or concentrated to adjust the egg load to about 5000/ml. AT stock solutions prepared in DMSO and 300 ul of test solution was placed in a well, along with 20 ul of aqueous solution containing eggs. The number of eggs in 20 ul solution ranged from 115 to 143 (n=10). Each treatment (2, 5, 10, 20, or 40 ppm) was replicated 5 times. Microplates were sealed with Parafilm™ and incubated at room temperature. Similar tests conducted with 0.2% DMSO alone served as controls. Egg hatching was monitored at 24, 72, 120, and 168 hr after incubation. Both moving and non-moving nematodes were counted to arrive at the number of eggs hatched. Proportion of egg hatch was calculated as the number of juveniles divided by total number of eggs.
# VSCC blockers effect on M. incognita egg hatching is shown in the following tables where % hatched is rounded to the nearest percentage point and where “% C*” is % hatch, normalized to control.
# [2] = test system: European corn borer (Ostrinia nubilalis); experiment: Diet surface test on European corn borer larvae (2nd instar); assay type: in vivo; conditions: for No. dead: 10 larvae; for mortality at 6.25 ppm / mortality at 12.5 ppm / mortality at 25 ppm / mortality at 50 ppm: Ostrinia nubilalis
# Description: Concentrations of 6.25, 12.5, 25, or 50 ppm AT blocker were prepared in 95% ethyl alcohol (EtOH). 95% EtOH alone served as control. European corn borer (ECB) diet prepared from the powdered diet supplied by French Agricultural Research, Inc. Diet (1-2 ml) was poured into small cups and allowed to cool to room temperature. Test solution (100 ul) was placed onto the diet surface and allowed to evaporate the solvent. Each concentration of chemical had 2 sets of 10 cups each. One late 2nd instar larva was placed in each cup and covered with lid having perforations for aeration. Cups were placed in an incubator for 7 days at 25±1° C. and 70±5% RH. After seven days, the weight of each larva was taken and any mortality was recorded. Then, the surviving larvae were transferred to fresh diet cups holding sufficient diet (5-6 ml) without chemicals and incubated at 25±1° C. and 70±5% RH until pupation. Weights of larvae were taken 14 days after transferring to fresh diet (21 days after start of treatment). Finally, the number of days until pupation was recorded.
# Anion transporters caused larval death and a reduction in weight gain within 7 days exposure. The effect persisted for 2 weeks time on untreated diet, but total time to pupation was relatively unaffected.
# [3] = 6.25 ppm, 21 days after feeding
# [4] = 12.5 ppm, 21 days after feeding
# [5] = 168 h, 6.25 ppm, 7 days after feeding
# [6] = 168 h, 12.5 ppm, 7 days after feeding
# [7] = 504 h, 6.25 ppm, 21 days after feeding
# [8] = 504 h, 12.5 ppm, 21 days after feeding
# [9] = 504 h, 50 ppm, 21 days after feeding
smiles,measurement,setting,value
"O=C(O)c1c2ccccc2cc2ccccc12 [9-AC, anthracene-9-carboxylic acid]",Eggs Hatched %,"[1]; 2 ppm, 24 hr",10%
same,"Eggs Hatched % C* (% hatch, normalized to control)","[1]; 2 ppm, 24 hr",100%
same,Eggs Hatched No.,"[1]; 2 ppm, 24 hr",65
same,Eggs Hatched %,"[1]; 2 ppm, 72 hr",15%
same,"Eggs Hatched % C* (% hatch, normalized to control)","[1]; 2 ppm, 72 hr",94%
same,Eggs Hatched No.,"[1]; 2 ppm, 72 hr",101
same,Eggs Hatched %,"[1]; 2 ppm, 120 hr",20%
same,"Eggs Hatched % C* (% hatch, normalized to control)","[1]; 2 ppm, 120 hr",91%
same,Eggs Hatched No.,"[1]; 2 ppm, 120 hr",134
same,Eggs Hatched %,"[1]; 2 ppm, 168 hr",25%
same,"Eggs Hatched % C* (% hatch, normalized to control)","[1]; 2 ppm, 168 hr",91%
same,Eggs Hatched No.,"[1]; 2 ppm, 168 hr",167
same,Eggs Hatched %,"[1]; 5 ppm, 24 hr",9%
same,"Eggs Hatched % C* (% hatch, normalized to control)","[1]; 5 ppm, 24 hr",90%
same,Eggs Hatched No.,"[1]; 5 ppm, 24 hr",67
same,Eggs Hatched %,"[1]; 5 ppm, 72 hr",14%
same,"Eggs Hatched % C* (% hatch, normalized to control)","[1]; 5 ppm, 72 hr",87%
same,Eggs Hatched No.,"[1]; 5 ppm, 72 hr",98
same,Eggs Hatched %,"[1]; 5 ppm, 120 hr",18%
same,"Eggs Hatched % C* (% hatch, normalized to control)","[1]; 5 ppm, 120 hr",82%
same,Eggs Hatched No.,"[1]; 5 ppm, 120 hr",129
same,Eggs Hatched %,"[1]; 5 ppm, 168 hr",22%
same,"Eggs Hatched % C* (% hatch, normalized to control)","[1]; 5 ppm, 168 hr",79%
same,Eggs Hatched No.,"[1]; 5 ppm, 168 hr",155
same,Eggs Hatched %,"[1]; 10 ppm, 24 hr",9%
same,"Eggs Hatched % C* (% hatch, normalized to control)","[1]; 10 ppm, 24 hr",90%
same,Eggs Hatched No.,"[1]; 10 ppm, 24 hr",62
same,Eggs Hatched %,"[1]; 10 ppm, 72 hr",13%
same,"Eggs Hatched % C* (% hatch, normalized to control)","[1]; 10 ppm, 72 hr",81%
same,Eggs Hatched No.,"[1]; 10 ppm, 72 hr",90
same,Eggs Hatched %,"[1]; 10 ppm, 120 hr",17%
same,"Eggs Hatched % C* (% hatch, normalized to control)","[1]; 10 ppm, 120 hr",77%
same,Eggs Hatched No.,"[1]; 10 ppm, 120 hr",118
same,Eggs Hatched %,"[1]; 10 ppm, 168 hr",20%
same,"Eggs Hatched % C* (% hatch, normalized to control)","[1]; 10 ppm, 168 hr",71%
same,Eggs Hatched No.,"[1]; 10 ppm, 168 hr",141
same,Eggs Hatched %,"[1]; 20 ppm, 24 hr",9%
same,"Eggs Hatched % C* (% hatch, normalized to control)","[1]; 20 ppm, 24 hr",90%
same,Eggs Hatched No.,"[1]; 20 ppm, 24 hr",59
same,Eggs Hatched %,"[1]; 20 ppm, 72 hr",12%
same,"Eggs Hatched % C* (% hatch, normalized to control)","[1]; 20 ppm, 72 hr",75%
same,Eggs Hatched No.,"[1]; 20 ppm, 72 hr",80
same,Eggs Hatched %,"[1]; 20 ppm, 120 hr",15%
same,"Eggs Hatched % C* (% hatch, normalized to control)","[1]; 20 ppm, 120 hr",68%
same,Eggs Hatched No.,"[1]; 20 ppm, 120 hr",102
same,Eggs Hatched %,"[1]; 20 ppm, 168 hr",18%
same,"Eggs Hatched % C* (% hatch, normalized to control)","[1]; 20 ppm, 168 hr",64%
same,Eggs Hatched No.,"[1]; 20 ppm, 168 hr",122
same,Eggs Hatched %,"[1]; 40 ppm, 24 hr",9%
same,"Eggs Hatched % C* (% hatch, normalized to control)","[1]; 40 ppm, 24 hr",90%
same,Eggs Hatched No.,"[1]; 40 ppm, 24 hr",60
same,Eggs Hatched %,"[1]; 40 ppm, 72 hr",12%
same,"Eggs Hatched % C* (% hatch, normalized to control)","[1]; 40 ppm, 72 hr",75%
same,Eggs Hatched No.,"[1]; 40 ppm, 72 hr",76
same,Eggs Hatched %,"[1]; 40 ppm, 120 hr",14%
same,"Eggs Hatched % C* (% hatch, normalized to control)","[1]; 40 ppm, 120 hr",64%
same,Eggs Hatched No.,"[1]; 40 ppm, 120 hr",94
same,Eggs Hatched %,"[1]; 40 ppm, 168 hr",15%
same,"Eggs Hatched % C* (% hatch, normalized to control)","[1]; 40 ppm, 168 hr",54%
same,Eggs Hatched No.,"[1]; 40 ppm, 168 hr",103
same,No. dead,"[2]; 6.25 ppm, 7 days after feeding",0
same,No. dead,[2]; [3],0
same,No. dead,"[2]; 12.5 ppm, 7 days after feeding",0
same,No. dead,[2]; [4],0
same,Days for pupation,[2]; 25 ppm,26.0 days
same,No. dead,"[2]; 25 ppm, 7 days after feeding",0
same,mortality at 6.25 ppm,[2]; [5],0%
same,mortality at 12.5 ppm,[2]; [6],0%
same,mortality at 25 ppm,"[2]; 168 h, 25 ppm, 7 days after feeding",0%
same,mortality at 6.25 ppm,[2]; [7],0%
same,mortality at 12.5 ppm,[2]; [8],0%
same,mortality at 50 ppm,[2]; [9],60%
"O=C(O)c1cc([N+](=O)[O-])ccc1NCCCc1ccccc1 [NPPB, 5-Nitro-2-(3-phenylpropylamino)benzoic acid]",Eggs Hatched %,"[1]; 2 ppm, 24 hr",10%
same,"Eggs Hatched % C* (% hatch, normalized to control)","[1]; 2 ppm, 24 hr",100%
same,Eggs Hatched No.,"[1]; 2 ppm, 24 hr",61
same,Eggs Hatched %,"[1]; 2 ppm, 72 hr",14%
same,"Eggs Hatched % C* (% hatch, normalized to control)","[1]; 2 ppm, 72 hr",87%
same,Eggs Hatched No.,"[1]; 2 ppm, 72 hr",92
same,Eggs Hatched %,"[1]; 2 ppm, 120 hr",19%
same,"Eggs Hatched % C* (% hatch, normalized to control)","[1]; 2 ppm, 120 hr",86%
same,Eggs Hatched No.,"[1]; 2 ppm, 120 hr",127
same,Eggs Hatched %,"[1]; 2 ppm, 168 hr",23%
same,"Eggs Hatched % C* (% hatch, normalized to control)","[1]; 2 ppm, 168 hr",83%
same,Eggs Hatched No.,"[1]; 2 ppm, 168 hr",155
same,Eggs Hatched %,"[1]; 5 ppm, 24 hr",10%
same,"Eggs Hatched % C* (% hatch, normalized to control)","[1]; 5 ppm, 24 hr",100%
same,Eggs Hatched No.,"[1]; 5 ppm, 24 hr",58
same,Eggs Hatched %,"[1]; 5 ppm, 72 hr",14%
same,"Eggs Hatched % C* (% hatch, normalized to control)","[1]; 5 ppm, 72 hr",87%
same,Eggs Hatched No.,"[1]; 5 ppm, 72 hr",86
same,Eggs Hatched %,"[1]; 5 ppm, 120 hr",18%
same,"Eggs Hatched % C* (% hatch, normalized to control)","[1]; 5 ppm, 120 hr",82%
same,Eggs Hatched No.,"[1]; 5 ppm, 120 hr",118
same,Eggs Hatched %,"[1]; 5 ppm, 168 hr",22%
same,"Eggs Hatched % C* (% hatch, normalized to control)","[1]; 5 ppm, 168 hr",79%
same,Eggs Hatched No.,"[1]; 5 ppm, 168 hr",149
same,Eggs Hatched %,"[1]; 10 ppm, 24 hr",9%
same,"Eggs Hatched % C* (% hatch, normalized to control)","[1]; 10 ppm, 24 hr",90%
same,Eggs Hatched No.,"[1]; 10 ppm, 24 hr",58
same,Eggs Hatched %,"[1]; 10 ppm, 72 hr",12%
same,"Eggs Hatched % C* (% hatch, normalized to control)","[1]; 10 ppm, 72 hr",75%
same,Eggs Hatched No.,"[1]; 10 ppm, 72 hr",82
same,Eggs Hatched %,"[1]; 10 ppm, 120 hr",16%
same,"Eggs Hatched % C* (% hatch, normalized to control)","[1]; 10 ppm, 120 hr",72%
same,Eggs Hatched No.,"[1]; 10 ppm, 120 hr",105
same,Eggs Hatched %,"[1]; 10 ppm, 168 hr",20%
same,"Eggs Hatched % C* (% hatch, normalized to control)","[1]; 10 ppm, 168 hr",71%
same,Eggs Hatched No.,"[1]; 10 ppm, 168 hr",129
same,Eggs Hatched %,"[1]; 20 ppm, 24 hr",9%
same,"Eggs Hatched % C* (% hatch, normalized to control)","[1]; 20 ppm, 24 hr",90%
same,Eggs Hatched No.,"[1]; 20 ppm, 24 hr",52
same,Eggs Hatched %,"[1]; 20 ppm, 72 hr",11%
same,"Eggs Hatched % C* (% hatch, normalized to control)","[1]; 20 ppm, 72 hr",69%
same,Eggs Hatched No.,"[1]; 20 ppm, 72 hr",67
same,Eggs Hatched %,"[1]; 20 ppm, 120 hr",14%
same,"Eggs Hatched % C* (% hatch, normalized to control)","[1]; 20 ppm, 120 hr",64%
same,Eggs Hatched No.,"[1]; 20 ppm, 120 hr",85
same,Eggs Hatched %,"[1]; 20 ppm, 168 hr",17%
same,"Eggs Hatched % C* (% hatch, normalized to control)","[1]; 20 ppm, 168 hr",61%
same,Eggs Hatched No.,"[1]; 20 ppm, 168 hr",106
same,Eggs Hatched %,"[1]; 40 ppm, 24 hr",8%
same,"Eggs Hatched % C* (% hatch, normalized to control)","[1]; 40 ppm, 24 hr",80%
same,Eggs Hatched No.,"[1]; 40 ppm, 24 hr",47
same,Eggs Hatched %,"[1]; 40 ppm, 72 hr",11%
same,"Eggs Hatched % C* (% hatch, normalized to control)","[1]; 40 ppm, 72 hr",69%
same,Eggs Hatched No.,"[1]; 40 ppm, 72 hr",61
same,Eggs Hatched %,"[1]; 40 ppm, 120 hr",11%
same,"Eggs Hatched % C* (% hatch, normalized to control)","[1]; 40 ppm, 120 hr",50%
same,Eggs Hatched No.,"[1]; 40 ppm, 120 hr",74
same,Eggs Hatched %,"[1]; 40 ppm, 168 hr",12%
same,"Eggs Hatched % C* (% hatch, normalized to control)","[1]; 40 ppm, 168 hr",43%
same,Eggs Hatched No.,"[1]; 40 ppm, 168 hr",82
same,No. dead,"[2]; 6.25 ppm, 7 days after feeding",0
same,No. dead,[2]; [3],0
same,No. dead,"[2]; 12.5 ppm, 7 days after feeding",0
same,No. dead,[2]; [4],0
same,No. dead,"[2]; 25 ppm, 21 days after feeding",2
same,Days for pupation,[2]; 50 ppm,0 days
same,No. dead,"[2]; 50 ppm, 7 days after feeding",8
same,% wt reduction to control,"[2]; 50 ppm, 21 days after feeding",0%
same,"Mean wt of survived larvae, mg","[2]; 50 ppm, 21 days after feeding",0 mg
same,No. dead,"[2]; 50 ppm, 21 days after feeding",10
same,mortality at 6.25 ppm,[2]; [5],0%
same,mortality at 12.5 ppm,[2]; [6],0%
same,mortality at 50 ppm,"[2]; 168 h, 50 ppm, 7 days after feeding",80%
same,mortality at 6.25 ppm,[2]; [7],0%
same,mortality at 12.5 ppm,[2]; [8],0%
same,mortality at 25 ppm,"[2]; 504 h, 25 ppm, 21 days after feeding",20%
same,mortality at 50 ppm,[2]; [9],100%
